Experimental data: patent US8536190B2, “Treating unwanted ocular conditions using an ascomycin macrolactam” (Allergan, Inc., priority 2007, dated 2013)

Experiments:
Format in all cases: in vivo, human
[1] = Preventative treatment of ocular conditions during weekly docetaxel treatments; conditions: person, medication containing 1.0% pimecrolimus during the entire course of docetaxel treatments
Text: A person is diagnosed with metastatic breast cancer. Their physician decides that the best course of cancer therapy includes weekly docetaxel treatments. In order to reduce or prevent the occurrence of unwanted ocular conditions as a result of the docetaxel treatments, the physician also prescribes a medication containing 1.0% pimecrolimus to be administered during the entire course of docetaxel treatments.

[2] = Treatment of epiphora (canalicular stenosis) after docetaxel chemotherapy; conditions: person, docetaxel every three weeks, medication containing 0.03%, after one week of daily treatment
Text: A physician diagnosis a person complaining of excessive tearing with epiphora. The physician determines that the cause of this excessive tearing was canalicular stenosis, and believes that this ocular condition was brought on by the person's prostate cancer therapy, which included docetaxel treatments every three weeks. The patient receives a medication containing 0.03% […].

[3] = Treatment of epiphora (punctal stenosis) in a patient undergoing docetaxel treatments; conditions: person, docetaxel every three weeks, medication containing 0.1% tacrolimus, after one week of daily treatment
Text: A person undergoing docetaxel treatments every three weeks as part of their breast cancer therapy developed epiphora during the seventh week. […] The patient receives a medication containing 0.1% tacrolimus.

## CC[C@@H]1/C=C(\C)C[C@H](C)C[C@H](OC)[C@H]2O[C@@](O)(C(=O)C(=O)N3CCCC[C@H]3C(=O)O[C@H](/C(C)=C/[C@@H]3CC[C@H](Cl)[C@H](OC)C3)[C@H](C)[C@@H](O)CC1=O)[C@H](C)C[C@@H]2OC [pimecrolimus, Pimecrolimus]
[1]
  occurrence of epiphora or symptoms of an ocular condition: does not exhibit epiphora or show any symptoms of an ocular condition

## Ascomycin [acromycin]
[2]
  excessive tearing (epiphora) after treatment: the excessive tearing subsides

## Tacrolimus
[3]
  excessive tearing (epiphora) after treatment: the excessive tearing subsides
